Assay results: ChEMBL document CHEMBL1667788, “Novel dammarane-type sapogenins from Panax ginseng berry and their biological activities” (Bioorg Med Chem Lett, 2011)

Assays:
Format in all cases: functional, cell-based
A549 = assay: Cytotoxicity against human A549 cells after 72 hrs by MTT assay; details: A549, 72 h
DU-145 = assay: Cytotoxicity against human DU145 cells after 72 hrs by MTT assay; details: DU-145, 72 h
HepG2 = assay: Cytotoxicity against human HepG2 cells after 72 hrs by MTT assay; details: HepG2, 72 h
MCF7 = assay: Cytotoxicity against human MCF7 cells after 72 hrs by MTT assay; details: MCF7, 72 h
COLO 205 = assay: Cytotoxicity against human COLO205 cells after 72 hrs by MTT assay; details: COLO 205, 72 h
HL-60 = assay: Cytotoxicity against human HL60 cells after 72 hrs by MTT assay; details: HL-60, 72 h

SMILES	IC50 (A549) [µM]	IC50 (DU-145) [µM]	IC50 (HepG2) [µM]	IC50 (MCF7) [µM]	IC50 (COLO 205) [µM]	IC50 (HL-60) [µM]
COC(C)(C)CCC[C@@](C)(O)[C@H]1CC[C@]2(C)[C@@H]1[C@H](O)C[C@@H]1[C@@]3(C)CC[C@H](O)C(C)(C)[C@@H]3CC[C@]12C	35.6	11.8	8.32	8.34	14.2	8.48
CC(C)(O)CCC[C@@](C)(O)[C@H]1CC[C@]2(C)[C@@H]1[C@H](O)C[C@@H]1[C@@]3(C)CC[C@H](O)C(C)(C)[C@@H]3CC[C@]12C	29.9		45.8	34.2	18.9	8.03
CC(C)=CCCC(C)(O)[C@H]1CC[C@]2(C)[C@@H]1[C@H](O)C[C@@H]1[C@@]3(C)CC[C@H](O)C(C)(C)[C@@H]3CC[C@]12C (single isomer, unassigned)	99.9	60.4	39.4	6.62	49.2	27.1
CC(C)[C@]12CC[C@](C)(O1)[C@H]1CC[C@]3(C)[C@@H]1[C@@H](C[C@@H]1[C@@]4(C)CC[C@H](O)C(C)(C)[C@@H]4CC[C@]13C)O2			64.1	49	70.7	42.4
